± gives the expanded uncertainty stated by the source.
Key:
[1] = xn = mol fraction of the nth substance listed; conditions: x2 = 0; for viscosity: 100 kPa, Falling or rolling sphere viscometry; for viscosity / speed of sound / mass density: Liquid; for speed of sound / mass density: 101 kPa; for speed of sound: Sing-around technique in a fixed-path interferometer; for mass density: Vibrating tube method
[2] = for viscosity: 100 kPa, Falling or rolling sphere viscometry; for viscosity / speed of sound / mass density: Liquid; for speed of sound / mass density: 101 kPa; for speed of sound: Sing-around technique in a fixed-path interferometer; for mass density: Vibrating tube method; for surface tension liquid-gas: 294.4 K, Pendant drop shape

CCCCCCC [heptane] + CC(C)CC(C)(C)C
viscosity ([1]; 293.15 K): 0.41 ± 0.004 mPa·s
speed of sound ([1]; 293.15 K): 1151.7 ± 0.8 m/s
mass density ([1]; 293.15 K): 683.85 ± 0.16 kg/m3
surface tension liquid-gas ([1]; 294.4 K, Pendant drop shape): 20.3 ± 0.3 mN/m
viscosity ([1]; 298.15 K): 0.389 ± 0.004 mPa·s
speed of sound ([1]; 298.15 K): 1130.1 ± 0.8 m/s
mass density ([1]; 298.15 K): 679.61 ± 0.16 kg/m3
viscosity ([1]; 303.15 K): 0.368 ± 0.003 mPa·s
speed of sound ([1]; 303.15 K): 1109.1 ± 0.7 m/s
mass density ([1]; 303.15 K): 675.35 ± 0.16 kg/m3
viscosity ([1]; 308.15 K): 0.349 ± 0.003 mPa·s
speed of sound ([1]; 308.15 K): 1087.5 ± 0.7 m/s
mass density ([1]; 308.15 K): 671.05 ± 0.16 kg/m3
speed of sound ([1]; 313.15 K): 1066.6 ± 0.7 m/s
mass density ([1]; 313.15 K): 666.73 ± 0.16 kg/m3
viscosity ([1]; 318.15 K): 0.315 ± 0.003 mPa·s
speed of sound ([1]; 318.15 K): 1045.4 ± 0.7 m/s
mass density ([1]; 318.15 K): 662.38 ± 0.16 kg/m3
viscosity ([1]; 323.15 K): 0.3 ± 0.003 mPa·s
speed of sound ([1]; 323.15 K): 1024.7 ± 0.7 m/s
mass density ([1]; 323.15 K): 657.99 ± 0.17 kg/m3
viscosity ([1]; 328.15 K): 0.284 ± 0.003 mPa·s
speed of sound ([1]; 328.15 K): 1003.6 ± 0.7 m/s
mass density ([1]; 328.15 K): 653.57 ± 0.17 kg/m3
viscosity ([1]; 333.15 K): 0.271 ± 0.005 mPa·s
speed of sound ([1]; 333.15 K): 983 ± 0.7 m/s
mass density ([1]; 333.15 K): 649.11 ± 0.17 kg/m3
speed of sound ([1]; 338.15 K): 962.3 ± 0.7 m/s
mass density ([1]; 338.15 K): 644.6 ± 0.17 kg/m3

CCCCCCC [heptane]
viscosity ([2]; 293.15 K): 0.41 ± 0.004 mPa·s
speed of sound ([2]; 293.15 K): 1151.7 ± 0.8 m/s
mass density ([2]; 293.15 K): 683.85 ± 0.16 kg/m3
surface tension liquid-gas [2]: 20.3 ± 0.3 mN/m
viscosity ([2]; 298.15 K): 0.389 ± 0.004 mPa·s
speed of sound ([2]; 298.15 K): 1130.1 ± 0.8 m/s
mass density ([2]; 298.15 K): 679.61 ± 0.16 kg/m3
viscosity ([2]; 303.15 K): 0.368 ± 0.003 mPa·s
speed of sound ([2]; 303.15 K): 1109.1 ± 0.7 m/s
mass density ([2]; 303.15 K): 675.35 ± 0.16 kg/m3
viscosity ([2]; 308.15 K): 0.349 ± 0.003 mPa·s
speed of sound ([2]; 308.15 K): 1087.5 ± 0.7 m/s
mass density ([2]; 308.15 K): 671.05 ± 0.16 kg/m3
speed of sound ([2]; 313.15 K): 1066.6 ± 0.7 m/s
mass density ([2]; 313.15 K): 666.73 ± 0.16 kg/m3
viscosity ([2]; 318.15 K): 0.315 ± 0.003 mPa·s
speed of sound ([2]; 318.15 K): 1045.4 ± 0.7 m/s
mass density ([2]; 318.15 K): 662.38 ± 0.16 kg/m3
viscosity ([2]; 323.15 K): 0.3 ± 0.003 mPa·s
speed of sound ([2]; 323.15 K): 1024.7 ± 0.7 m/s
mass density ([2]; 323.15 K): 657.99 ± 0.17 kg/m3
viscosity ([2]; 328.15 K): 0.284 ± 0.003 mPa·s
speed of sound ([2]; 328.15 K): 1003.6 ± 0.7 m/s
mass density ([2]; 328.15 K): 653.57 ± 0.17 kg/m3
viscosity ([2]; 333.15 K): 0.271 ± 0.005 mPa·s
speed of sound ([2]; 333.15 K): 983 ± 0.7 m/s
mass density ([2]; 333.15 K): 649.11 ± 0.17 kg/m3
speed of sound ([2]; 338.15 K): 962.3 ± 0.7 m/s
mass density ([2]; 338.15 K): 644.6 ± 0.17 kg/m3

CC(C)CC(C)(C)C [2,2,4-trimethylpentane]
viscosity ([2]; 293.15 K): 0.501 ± 0.004 mPa·s
speed of sound ([2]; 293.15 K): 1103.2 ± 0.8 m/s
mass density ([2]; 293.15 K): 691.84 ± 0.17 kg/m3
surface tension liquid-gas [2]: 18.7 ± 0.4 mN/m
viscosity ([2]; 298.15 K): 0.473 ± 0.004 mPa·s
speed of sound ([2]; 298.15 K): 1082 ± 0.8 m/s
mass density ([2]; 298.15 K): 687.7 ± 0.17 kg/m3
viscosity ([2]; 303.15 K): 0.447 ± 0.004 mPa·s
speed of sound ([2]; 303.15 K): 1061.4 ± 0.8 m/s
mass density ([2]; 303.15 K): 683.59 ± 0.17 kg/m3
viscosity ([2]; 308.15 K): 0.423 ± 0.004 mPa·s
speed of sound ([2]; 308.15 K): 1040.4 ± 0.8 m/s
mass density ([2]; 308.15 K): 679.4 ± 0.17 kg/m3
speed of sound ([2]; 313.15 K): 1020 ± 0.8 m/s
mass density ([2]; 313.15 K): 675.23 ± 0.17 kg/m3
viscosity ([2]; 318.15 K): 0.38 ± 0.004 mPa·s
speed of sound ([2]; 318.15 K): 999.3 ± 0.8 m/s
mass density ([2]; 318.15 K): 670.98 ± 0.17 kg/m3
viscosity ([2]; 323.15 K): 0.361 ± 0.003 mPa·s
speed of sound ([2]; 323.15 K): 979.2 ± 0.8 m/s
mass density ([2]; 323.15 K): 666.75 ± 0.18 kg/m3
viscosity ([2]; 328.15 K): 0.343 ± 0.003 mPa·s
speed of sound ([2]; 328.15 K): 958.7 ± 0.8 m/s
mass density ([2]; 328.15 K): 662.44 ± 0.18 kg/m3
viscosity ([2]; 333.15 K): 0.326 ± 0.005 mPa·s
speed of sound ([2]; 333.15 K): 938.6 ± 0.8 m/s
mass density ([2]; 333.15 K): 658.16 ± 0.18 kg/m3
speed of sound ([2]; 338.15 K): 918.7 ± 0.8 m/s
mass density ([2]; 338.15 K): 653.8 ± 0.18 kg/m3
speed of sound ([2]; 343.15 K): 899 ± 0.6 m/s
mass density ([2]; 343.15 K): 649.4 ± 0.18 kg/m3

From the NIST ThermoML archive (doi:10.1021/je5007532)
